Read-outs that look alike come from different tables or passages of the source. Starred links: 1 amine or outer side, 2 acyl side, 3 side chain; linkers in the order of their positions; H or OH if unused. Non-standard residues stand in square brackets, D forms with d. Residues, ends and D or L forms follow the SMILES beside them. Groups on a side chain read outwards from the residue. *: point of attachment. C20 diacid = O=C(O)CCCCCCCCCCCCCCCCCCC(=O)*; C18 diacid = O=C(O)CCCCCCCCCCCCCCCCC(=O)*; αMePhe(2-F) = C[C@](N)(Cc1ccccc1F)C(=O)O; γGlu = O=C(O)[C@H](CCC(=O)[*:2])N[*:1]; αMe4Pal = C[C@](N)(Cc1ccncc1)C(=O)O; αMeY = C[C@](N)(Cc1ccc(O)cc1)C(=O)O; 4Pal = N[C@@H](Cc1ccncc1)C(=O)O; αMeL = CC(C)C[C@](C)(N)C(=O)O; Orn = NCCC[C@H](N)C(=O)O; AEEA = NCCOCCOCC(=O)O; Aib = CC(C)(N)C(=O)O
Experiments:
Type in all cases: cell-based
hGIPR [1] = molecular target: T1, hGIPR (Homo sapiens, UniProt P48546); assay: Functional cAMP activity in the presence of 1% HSA; conditions: read-out: cAMP Rel EC50, hGIPR
T1 sequence (P48546 22-466): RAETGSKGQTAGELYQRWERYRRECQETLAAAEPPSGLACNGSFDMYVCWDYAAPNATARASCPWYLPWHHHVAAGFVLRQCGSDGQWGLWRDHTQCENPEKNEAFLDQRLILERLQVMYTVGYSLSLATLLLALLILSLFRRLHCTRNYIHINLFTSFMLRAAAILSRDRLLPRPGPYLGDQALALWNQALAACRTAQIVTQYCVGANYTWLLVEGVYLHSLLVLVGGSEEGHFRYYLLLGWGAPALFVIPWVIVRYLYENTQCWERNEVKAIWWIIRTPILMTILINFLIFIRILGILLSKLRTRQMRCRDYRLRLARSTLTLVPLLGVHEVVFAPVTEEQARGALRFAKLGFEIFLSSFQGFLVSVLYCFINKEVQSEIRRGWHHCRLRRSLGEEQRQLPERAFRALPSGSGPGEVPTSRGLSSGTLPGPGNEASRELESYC

hGLP-1R [2] = molecular target: T2, hGLP-1R (Homo sapiens, UniProt P43220); assay: Functional cAMP activity in the presence of 1% HSA; conditions: read-out: cAMP Rel EC50, hGLP-1R
human GcgR = human GcgR (Homo sapiens, UniProt P47871); assay: Functional cAMP activity in the presence of 1% HSA; conditions: read-out: cAMP Rel EC50, hGcgR
hGIPR [3] = molecular target: T1, hGIPR; assay: Functional cAMP activation in the presence of 0.1% casein (no HSA); conditions: geometric mean, read-out: Relative cAMP EC50, hGIPR;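 for Relative cAMP EC50, hGIPR: intracellular cAMP rise after 30 min at 37 °C read by HTRF against a standard curve, scaled between buffer alone (0%) and top control ligand concentration (100%), four-parameter fit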;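 for Relative cAMP EC50, hGLP-1R: intracellular cAMP rise after 30 min at 37 °C read by HTRF, normalized between buffer only (0%) and maximal control ligand (100%), four-parameter variable-slope fit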;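 for Relative cAMP EC50, hGcgR: intracellular cAMP rise after 30 min at 37 °C, read by HTRF against a cAMP standard curve, scaled from buffer only (0%) to maximal control ligand response (100%)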
hGLP-1R [4] = molecular target: T2, hGLP-1R; assay: as above; conditions: geometric mean, read-out: Relative cAMP EC50, hGLP-1R
hGcgR = hGcgR (Homo sapiens, UniProt P47871); assay: as above; conditions: geometric mean, read-out: Relative cAMP EC50, hGcgR;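 note: intracellular cAMP rise after 30 min at 37 °C, read by HTRF against a cAMP standard curve, scaled from buffer only (0%) to maximal control ligand response (100%)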
[5] = in the presence of 0.1% casein (no HSA)

Chain of human GcgR (P47871 26-477): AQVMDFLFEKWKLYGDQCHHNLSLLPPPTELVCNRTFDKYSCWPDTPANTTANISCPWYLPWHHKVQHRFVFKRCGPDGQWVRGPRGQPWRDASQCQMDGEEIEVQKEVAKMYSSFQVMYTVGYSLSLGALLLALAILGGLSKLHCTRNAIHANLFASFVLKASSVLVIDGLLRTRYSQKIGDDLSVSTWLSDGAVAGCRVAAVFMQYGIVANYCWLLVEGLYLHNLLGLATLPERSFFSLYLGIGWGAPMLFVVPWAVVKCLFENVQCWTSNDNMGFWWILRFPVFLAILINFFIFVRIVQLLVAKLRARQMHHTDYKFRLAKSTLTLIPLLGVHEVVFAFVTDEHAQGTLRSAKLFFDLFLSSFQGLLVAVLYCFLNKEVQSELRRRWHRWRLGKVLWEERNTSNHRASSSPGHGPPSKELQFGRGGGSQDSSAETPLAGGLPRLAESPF
Chain of hGcgR (P47871 26-477): as above
T2 sequence (P43220 24-463): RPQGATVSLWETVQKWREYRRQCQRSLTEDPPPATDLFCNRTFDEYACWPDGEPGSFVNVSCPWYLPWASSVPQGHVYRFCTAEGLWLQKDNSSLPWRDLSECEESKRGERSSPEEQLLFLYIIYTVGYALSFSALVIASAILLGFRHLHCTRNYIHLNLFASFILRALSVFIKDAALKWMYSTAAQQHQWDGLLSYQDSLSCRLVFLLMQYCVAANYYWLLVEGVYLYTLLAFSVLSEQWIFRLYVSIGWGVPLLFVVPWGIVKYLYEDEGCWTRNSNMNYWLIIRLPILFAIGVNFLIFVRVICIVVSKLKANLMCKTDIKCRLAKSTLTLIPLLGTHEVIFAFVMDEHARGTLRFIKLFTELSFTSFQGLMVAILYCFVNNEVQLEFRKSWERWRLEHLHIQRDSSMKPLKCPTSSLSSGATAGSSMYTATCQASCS

Row | Molecule | EC50 (hGIPR [1]; HEK-293 cells expressing hGIPR, 1% HSA, geometric mean of relative EC50) [nM] | EC50 (hGLP-1R [2]; HEK-293 cells expressing hGLP-1R, 1% HSA, geometric mean of relative EC50) [nM] | EC50 (human GcgR; HEK-293 cells expressing hGcgR, 1% HSA, geometric mean of relative EC50) [nM] | EC50 (hGIPR [3]; 0.1% casein, no HSA) [nM] | EC50 (hGLP-1R [4]; 0.1% casein, no HSA) [nM] | EC50 (hGcgR; 0.1% casein, no HSA) [nM] | EC50 (hGIPR [1]) [nM] | EC50 (hGLP-1R [2]) [nM] | EC50 (human GcgR) [nM] | EC50 (hGIPR [3]; [5]) [nM] | EC50 (hGLP-1R [4]; [5]) [nM] | EC50 (hGcgR; [5]) [nM]
1 | CC[C@H](C)[C@H](NC(=O)[C@H](Cc1ccccc1)NC(=O)[C@H](C)NC(=O)C(C)(C)NC(=O)[C@H](C)NC(=O)[C@H](C)NC(=O)[C@H](CCCCNC(=O)COCCOCCNC(=O)CC[C@H](NC(=O)CCCCCCCCCCCCCCCCC(=O)O)C(=O)O)NC(=O)[C@H](CCCN)NC(=O)[C@H](CC(=O)O)NC(=O)[C@H](CC(C)C)NC(=O)[C@](C)(CC(C)C)NC(=O)[C@@H](NC(=O)[C@H](CO)NC(=O)[C@H](Cc1ccncc1)NC(=O)[C@H](CC(=O)O)NC(=O)[C@H](CO)NC(=O)[C@@H](NC(=O)[C@](C)(Cc1ccccc1F)NC(=O)[C@@H](NC(=O)CNC(=O)[C@H](CCC(N)=O)NC(=O)C(C)(C)NC(=O)[C@@H](N)Cc1ccc(O)cc1)[C@@H](C)O)[C@@H](C)O)[C@@H](C)CC)C(=O)N[C@H](CCC(=O)O)C(=O)N[C@@](C)(Cc1ccc(O)cc1)C(=O)N[C@@H](CC(C)C)C(=O)N[C@@H](CC(C)C)C(=O)N[C@@H](CCC(=O)O)C(=O)NCC(=O)NCC(=O)N1CCC[C@H]1C(=O)N[C@@H](CO)C(=O)N[C@@H](CO)C(=O)NCC(=O)N[C@@H](CCC(=O)O)C(=O)N1CCC[C@H]1C(=O)N1CCC[C@H]1C(=O)N1CCC[C@H]1C(=O)N[C@@H](CO)C(N)=O [Example 1236] (H-Y[Aib]QGT[αMePhe(2-F)]TSD[4Pal]SI[αMeL]LD[Orn]K([AEEA-γGlu-C18 diacid])AA[Aib]AFI[dE][αMeY]LLEGGPSSGEPPPS-NH2) | 11.9 | 95.8 | 502 | 0.052 | 0.304 | 0.947 |  |  |  |  |  | 
2 | H-Y[Aib]QGTFTSDFSK[αMeL]LDKK([AEEA-AEEA-γGlu-C18 diacid])AQ[Aib]AFIEYLLEGGESSGAPPPSGS-NH2 [Example 147] |  |  |  |  |  |  | 108 | 964 | 877 | 0.343 | 4.26 | 4.39
3 | H-Y[Aib]QGTFTSDFSK[αMeL]LDKK([AEEA-AEEA-γGlu-C18 diacid])AQ[Aib]AFIEYLLEGGPSSGAPPPSGS-NH2 [Example 142] |  |  |  |  |  |  | 14.1 | 391 | 1230 | 0.216 | 4.37 | 3.49
4 | H-Y[Aib]QGTFTSDFSK[αMeL]LDKK([AEEA-γGlu-C18 diacid])AQ[Aib]AFIEYLIEGGESSGAPPPSGS-NH2 [Example 215] |  |  |  |  |  |  | 87.3 | 162 | 1510 | 0.418 | 0.803 | 9.77
5 | H-Y[Aib]QGTFTSDFSK[αMeL]LDKK([AEEA-γGlu-C18 diacid])AQ[Aib]AFIEYLIE[Aib]GESSGAPPPSGS-NH2 [Example 216] |  |  |  |  |  |  | 12 | 90.6 | 895 | 0.0887 | 0.52 | 2.7
6 | H-Y[Aib]QGTFTSDFSK[αMeL]LDKK([AEEA-γGlu-C18 diacid])AQ[Aib]AFIEYLIE[Aib]SPSSGAPPPSGS-NH2 [Example 805] |  |  |  |  |  |  | 13 | 146 | 1210 | 0.0875 | 0.715 | 3.97
7 | H-Y[Aib]QGTFTSDFSK[αMeL]LDKK([AEEA-γGlu-C18 diacid])AQ[Aib]AFIEYLLEGGESSGAPPPSGS-NH2 [Example 146] |  |  |  |  |  |  | 74.6 | 678 | 463 | 0.362 | 2.73 | 2.04
8 | H-Y[Aib]QGTFTSDFSK[αMeL]LDKK([AEEA-γGlu-C18 diacid])AQ[Aib]AFIEYLLEGGPSSGAPPPSEG[AEEA]-NH2 [Example 56] |  |  |  |  |  |  | 30.3 | 167 | 265 | 0.315 | 4.07 | 2.8
9 | H-Y[Aib]QGTFTSDFSK[αMeL]LDKK([AEEA-γGlu-C18 diacid])AQ[Aib]AFIE[αMe4Pal]LIE[Aib]GPSSGAPPPSGS-NH2 [Example 912] |  |  |  |  |  |  | 6.15 | 59.6 | 955 | 0.0387 | 0.414 | 3.76
10 | H-Y[Aib]QGTFTSDFSK[αMeL]LDKK([AEEA-γGlu-C20 diacid])AQ[Aib]AFIEWLIEGGPSSGAPPPSEG-NH2 [Example 40] |  |  |  |  |  |  | 76.7 | 138 | 2750 | 0.139 | 0.693 | 12.3
11 | H-Y[Aib]QGTFTSDFSK[αMeL]LDKK([AEEA-γGlu-C20 diacid])AQ[Aib]AFIEWLLAGGPSSGEPPPSEG-NH2 [Example 20] |  |  |  |  |  |  | 42.3 | 326 | 587 | 0.381 | 2.45 | 15.4
